Data as given in patent US8703964B2, “Bendamustine cyclopolysaccharide compositions” (Supratek Pharma Inc., priority 2009, dated 2014).

Columns and labels:
[1] = test system: Lewis Lung carcinoma 3LL cells; test: Murine experimental lung metastasis model (Example 26); type: in vivo, C57Bl/6 mice; settings: 50 mg/kg
Protocol: Female Charles Rivers C57Bl/6 mice, aged 5 to 6 weeks, were purchased from Charles River Canada Inc. The animals were kept 5 per cage with an air filter cover under light (12 light/dark cycle, light on at 6H00) and temperature (22°±1° C.)-controlled environment. All manipulations of animals were performed under a sterilized laminar hood. The animals had ad libitum access to Purina mouse chow (Pro Lab PMH 4018, Trademark of Agway, Syracuse, N.Y.) and water. These animal studies were conducted according to the “Guidelines for Care and Use of Experimental Animals”. Tumor Cell Culture:
Lewis Lung carcinoma 3LL cells were cultured in the appropriated culture medium. The cells were harvested in their logarithmic growth phase for the preparation of tumor implantation.
Lewis Lung carcinoma 3LL cells (2.0 to 5.0×10^5 cells in 200 ul PBS) were implanted intravenously by tail vein to establish experimental lung metastasis tumor models.
The treatments were performed on day after tumor implantation. The animals were dosed with the following dosing solutions.
non-formulated bendamustine (BM), (50 mg/kg)
Bendamustine (50 mg/kg) in 20% SBECD, 1% LMWP
Metastasis formation was evaluated by counting the numbers of metastasis spots on the lung surface. Routine metastasis examination were done for all organs at the end of the study.

[2] = Pharmacokinetics of bendamustine dosed to rats, composition with SBECD and PI2080 (Example 12); type: in vivo, Female Sprague-Dawley rats; settings: i.v. 10 mg/kg
Protocol: Control: 2.5 mg/mL bendamustine hydrochloride, 4.25 mg/mL of mannitol in 0.9% NaCl; dose of 10 mg/kg
Inventive Composition: 2.5 mg/mL bendamustine hydrochloride, 40% w/w sodium sulfobutyl ether β-cyclodextrin, 1% PI2080, 4.3 mg/g mannitol in water (prepared according to the procedure set forth in Example 9); dose of 10 mg/kg.
Female Sprague-Dawley rats (250-350 g). The animals were kept three per cage with an air filter cover under light (12 h light/dark cycle, light on at 06 h00) and controlled temperature 22° C.+/−1° C. All manipulations with the animals were performed under a sterilized laminar hood. The animals had ad libitum access to Purina mouse chow and water. The animals were fasted overnight and anesthetized, before dosing. Dosing and Sampling: Inventive bendamustine composition and control were administered intravenously to rats in tail vein. Blood samples were collected after time intervals of 5, 15, 30, 45 min, 1, 1.5, 2 and 3 hrs post-injection, The rats were anesthetised by general inhalation of isoflurane. The blood samples were collected from the jugular vein with heparinized tube and kept on ice. The blood was immediately centrifuged, and plasma was separated. The plasma samples were immediately extracted. Sample Extraction and Analysis: The plasma samples 0.100 mL were transferred to plastic tubes. The samples were extracted with 0.400 mL of 100 mM HCl in acetonitrile while being shaken vigorously for 30 seconds. The samples were centrifuged at 10000 RPM for 5 minutes. The supernatant was separated. The samples were frozen in dry ice and kept at −80° C. until HPLC analysis. The aliquots of 20 microliters were injected into HPLC for analysis. The HPLC Conditions: C18 reversed phase column 50×4.6 mm, Symmetry/Shield 3.5 micrometer Column temperature 30° C. Flow rate 1.5 mL/min Injection volume 20 microliters Fluorescence detection at wavelengths: excitation 327 nm, emission 420 nm Mobile phase: Buffer A: 5% acetonitrile 0.1% TFA Buffer B: 90% acetonitrile 0.1% TFA Run time: 10 min The improved pharmacokinetic profiles of Bendamustine for tested inventive composition versus the control is shown in Table 2 below.

In the case of `Cn1c(CCCC(=O)O)nc2cc(N(CCCl)CCCl)ccc21` [BM, 4-[5-[bis(2-chloroethyl)amino]-1-methylbenzimidazol-2-yl]butanoic acid], the Lung metastasis number ([1]; 3LL i.v. implanted, C57Bl/6 mice) is reported as 56.1 ± 9.5, the “Inhibition on metastasis formation vs control” value ([1]; 3LL lung metastasis, mice) is reported as 14.4% and the “Inhibition on metastasis formation vs not formulated BM” value ([1]; 3LL lung metastasis, mice) is reported as 0%. The concentration at 0.08 h ([2]; female, Sprague-Dawley, rat, plasma, iv, 0.08 h post injection, read-out: Concentration of bendamustine in rat plasma, Mean (SEM)) was 6040 ng/mL, the concentration at 0.25 h ([2]; female, Sprague-Dawley, rat, plasma, iv, 0.25 h post injection, read-out: Concentration of bendamustine in rat plasma, Mean (SEM)) was 2430 ng/mL and the concentration at 0.5 h ([2]; female, Sprague-Dawley, rat, plasma, iv, 0.5 h post injection, read-out: Concentration of bendamustine in rat plasma, Mean (SEM)) was 520 ng/mL. It also gave a concentration at 0.75 h ([2]; female, Sprague-Dawley, rat, plasma, iv, 0.75 h post injection, read-out: Concentration of bendamustine in rat plasma, Mean (SEM)) of 145 ng/mL, a concentration at 1.5 h ([2]; female, Sprague-Dawley, rat, plasma, iv, 1.5 h post injection, read-out: Concentration of bendamustine in rat plasma, Mean (SEM)) of 8 ng/mL and a concentration at 2 h ([2]; female, Sprague-Dawley, rat, plasma, iv, 2 h post injection, read-out: Concentration of bendamustine in rat plasma, Mean (SEM)) of 2 ng/mL. For the same compound, the “Concentration of bendamustine in rat plasma, Mean (SEM)” value ([2]; 1 h post injection) was 48 (11) ng/mL and the “Concentration of bendamustine in rat plasma, Mean (SEM)” value ([2]; 3 h post injection) was 0 (1) ng/mL.
